Experiments:
Assay type in all cases: biochemical
[1] = target: T1, activated IR (Homo sapiens, UniProt P06213); test: In vitro IR enzymatic assay (ADP-Glo); details: ATP 50 μM
T1 construct: purchased Millipore 14-803
Protocol: (§1) Inhibition of IGF-1R and IR kinases by compounds described herein were tested. The IC50 values were measured in vitro using an ADP-Glo kinase assay Kit (Promega). For the IGF-1R assay, active recombinant IGF-1R (Millipore #14-802) was used at 1 ng/reaction, the substrate IGF-1R tide (Millipore #12-527) was used at 125 μM and ATP was used at 100 μM. For the IR assay, active recombinant IR (Millipore #14-803) was used at 1 ng/reaction, the substrate Axl tide (Millipore #12-516) was used at 125 μM and ATP at 50 μM. Kinase reactions in both assays were conducted at 30° C. for 20 min with increasing concentrations of the test compounds.
(§2) The assay results as the percent inhibition of binding are presented in Tables B2 and B3 for IGF-1R and IR respectively.

[2] = target: T2, FLT3 (D835Y) (Homo sapiens, UniProt P36888, D835Y); test: HotSpot kinase assay against FLT3 (D835Y); details: HotSpot 33P assay, ATP 10 μM
T2 sequence (P36888 27-993 D835Y): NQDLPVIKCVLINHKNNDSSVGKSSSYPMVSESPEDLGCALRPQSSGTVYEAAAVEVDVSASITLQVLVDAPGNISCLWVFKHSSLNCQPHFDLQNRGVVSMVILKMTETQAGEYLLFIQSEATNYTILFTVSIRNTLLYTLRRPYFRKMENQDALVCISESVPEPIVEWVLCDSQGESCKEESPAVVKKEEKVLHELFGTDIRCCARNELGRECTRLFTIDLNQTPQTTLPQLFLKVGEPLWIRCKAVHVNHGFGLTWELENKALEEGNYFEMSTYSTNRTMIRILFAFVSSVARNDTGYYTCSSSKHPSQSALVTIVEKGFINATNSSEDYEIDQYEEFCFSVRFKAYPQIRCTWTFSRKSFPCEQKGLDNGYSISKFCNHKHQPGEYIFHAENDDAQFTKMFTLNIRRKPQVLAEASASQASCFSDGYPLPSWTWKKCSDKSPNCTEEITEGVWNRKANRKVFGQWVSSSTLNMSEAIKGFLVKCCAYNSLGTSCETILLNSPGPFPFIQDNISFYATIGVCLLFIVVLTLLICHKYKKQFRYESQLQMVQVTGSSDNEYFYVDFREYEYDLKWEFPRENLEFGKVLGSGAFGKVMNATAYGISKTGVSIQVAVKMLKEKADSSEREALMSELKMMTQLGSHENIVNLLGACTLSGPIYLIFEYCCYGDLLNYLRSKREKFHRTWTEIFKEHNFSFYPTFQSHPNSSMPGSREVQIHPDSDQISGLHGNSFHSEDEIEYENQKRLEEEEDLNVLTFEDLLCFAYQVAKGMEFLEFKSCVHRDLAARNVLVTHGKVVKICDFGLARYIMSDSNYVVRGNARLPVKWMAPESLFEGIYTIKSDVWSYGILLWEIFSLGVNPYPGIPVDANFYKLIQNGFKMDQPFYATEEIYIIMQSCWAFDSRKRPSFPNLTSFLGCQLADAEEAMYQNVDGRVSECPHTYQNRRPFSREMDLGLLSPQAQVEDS
Protocol: Kinase assays were performed using test compounds against a panel of FLT3 kinases: FLT3; FLT3 (D835Y); and FLT3 (ITD). Compounds were prepared as 10 mM stock solutions in DMSO prior to use in the assay. Each compound was tested at 10 concentrations with three-fold serial dilution starting at 1 μM against the three kinases. The control compound, staurosporine, was tested at 10 concentrations with four-fold serial dilution starting at 20 μM. IC50 values and curve fits were obtained using Prism (GraphPad Software). The screening was performed using the “HotSpot” assay platform. The assay measures the conversion of a peptide substrate to ^33P-labelled phosphorylated product. Briefly, specific kinase/substrate pairs along with required cofactors were prepared in reaction buffer. Specifically, the substrate was prepared in reaction buffer (20 mM Hepes, pH 7.5; 10 mM MgCl2; 1 mM EGTA; 0.02% Brij35; 0.02 mg/mL BSA; 0.1 mM Na3VO4; 2 mM DTT; 1% DMSO), followed by delivery of any required cofactor to the resulting substrate solution. The corresponding kinase was delivered into the substrate solution and the reaction mixture was mixed gently. Compound was delivered into the reaction mixture, followed 15-20 min later by addition of a mixture of ATP (Sigma, St. Louis Mo.) and ^33P ATP (specific activity 0.01 μCi/μL final; Perkin Elmer, Waltham, Mass.) to a final concentration of 10 μM to initiate the reaction. Reactions were carried out at RT for 120 min, followed by spotting of the reactions onto P81 ion exchange filter paper (Whatman #3698-915; Whatman Inc., Piscataway, N.J.). Unbound phosphate was removed by extensive washing of filters in 0.75% phosphoric acid. […] The percent of enzyme inhibition was calculated based on the percent of remaining kinase activity. IC50 values were determined.

[3] = target: T3, activated IGF-1R (Homo sapiens, UniProt P08069); test: In vitro IGF-1R enzymatic assay (ADP-Glo); details: ATP 100 μM
T3 construct: purchased Millipore 14-802
Protocol: as §1, §2

[4] = target: ROS/ROS1 (Homo sapiens, UniProt P08922); test: HotSpot kinase assay against ROS/ROS1; details: HotSpot 33P assay, ATP 10 μM-30 μM
Protocol: (§3) The screening was performed using the “HotSpot” assay platform. The assay measures the conversion of a peptide substrate to ^33P-labelled phosphorylated product. Briefly, specific kinase/substrate pairs along with required cofactors were prepared in reaction buffer. Specifically, the substrate was prepared in reaction buffer (20 mM Hepes, pH 7.5; 10 mM MgCl2; 1 mM EGTA; 0.02% Brij35; 0.02 mg/mL BSA; 0.1 mM Na3VO4; 2 mM DTT; 1% DMSO), followed by delivery of any required cofactor to the resulting substrate solution. The corresponding kinase was delivered into the substrate solution and the reaction mixture was mixed gently. Compound was delivered into the reaction mixture, followed 15-20 minutes later by addition of a mixture of ATP (Sigma, St. Louis Mo.) and ^33P ATP (specific activity 0.01 μCi/μL final; Perkin Elmer, Waltham, Mass.) to a final concentration of 10 μM-30 μM to initiate the reaction. Reactions were carried out at RT for 120 min, followed by spotting of the reactions onto P81 ion exchange filter paper (Whatman #3698-915; Whatman Inc., Piscataway, N.J.). Unbound phosphate was removed by extensive washing of filters in 0.75% phosphoric acid. […] The percent of enzyme inhibition was calculated based on the percent of remaining kinase activity. IC50 values and curve fits were obtained using Prism (GraphPad Software).

[5] = target: ABL2/ARG (Homo sapiens, UniProt P42684); test: HotSpot kinase assay against ABL2/ARG; details: HotSpot 33P assay, ATP 10 μM-30 μM
Protocol: as §3

Sequence of ROS/ROS1 (P08922 28-2347): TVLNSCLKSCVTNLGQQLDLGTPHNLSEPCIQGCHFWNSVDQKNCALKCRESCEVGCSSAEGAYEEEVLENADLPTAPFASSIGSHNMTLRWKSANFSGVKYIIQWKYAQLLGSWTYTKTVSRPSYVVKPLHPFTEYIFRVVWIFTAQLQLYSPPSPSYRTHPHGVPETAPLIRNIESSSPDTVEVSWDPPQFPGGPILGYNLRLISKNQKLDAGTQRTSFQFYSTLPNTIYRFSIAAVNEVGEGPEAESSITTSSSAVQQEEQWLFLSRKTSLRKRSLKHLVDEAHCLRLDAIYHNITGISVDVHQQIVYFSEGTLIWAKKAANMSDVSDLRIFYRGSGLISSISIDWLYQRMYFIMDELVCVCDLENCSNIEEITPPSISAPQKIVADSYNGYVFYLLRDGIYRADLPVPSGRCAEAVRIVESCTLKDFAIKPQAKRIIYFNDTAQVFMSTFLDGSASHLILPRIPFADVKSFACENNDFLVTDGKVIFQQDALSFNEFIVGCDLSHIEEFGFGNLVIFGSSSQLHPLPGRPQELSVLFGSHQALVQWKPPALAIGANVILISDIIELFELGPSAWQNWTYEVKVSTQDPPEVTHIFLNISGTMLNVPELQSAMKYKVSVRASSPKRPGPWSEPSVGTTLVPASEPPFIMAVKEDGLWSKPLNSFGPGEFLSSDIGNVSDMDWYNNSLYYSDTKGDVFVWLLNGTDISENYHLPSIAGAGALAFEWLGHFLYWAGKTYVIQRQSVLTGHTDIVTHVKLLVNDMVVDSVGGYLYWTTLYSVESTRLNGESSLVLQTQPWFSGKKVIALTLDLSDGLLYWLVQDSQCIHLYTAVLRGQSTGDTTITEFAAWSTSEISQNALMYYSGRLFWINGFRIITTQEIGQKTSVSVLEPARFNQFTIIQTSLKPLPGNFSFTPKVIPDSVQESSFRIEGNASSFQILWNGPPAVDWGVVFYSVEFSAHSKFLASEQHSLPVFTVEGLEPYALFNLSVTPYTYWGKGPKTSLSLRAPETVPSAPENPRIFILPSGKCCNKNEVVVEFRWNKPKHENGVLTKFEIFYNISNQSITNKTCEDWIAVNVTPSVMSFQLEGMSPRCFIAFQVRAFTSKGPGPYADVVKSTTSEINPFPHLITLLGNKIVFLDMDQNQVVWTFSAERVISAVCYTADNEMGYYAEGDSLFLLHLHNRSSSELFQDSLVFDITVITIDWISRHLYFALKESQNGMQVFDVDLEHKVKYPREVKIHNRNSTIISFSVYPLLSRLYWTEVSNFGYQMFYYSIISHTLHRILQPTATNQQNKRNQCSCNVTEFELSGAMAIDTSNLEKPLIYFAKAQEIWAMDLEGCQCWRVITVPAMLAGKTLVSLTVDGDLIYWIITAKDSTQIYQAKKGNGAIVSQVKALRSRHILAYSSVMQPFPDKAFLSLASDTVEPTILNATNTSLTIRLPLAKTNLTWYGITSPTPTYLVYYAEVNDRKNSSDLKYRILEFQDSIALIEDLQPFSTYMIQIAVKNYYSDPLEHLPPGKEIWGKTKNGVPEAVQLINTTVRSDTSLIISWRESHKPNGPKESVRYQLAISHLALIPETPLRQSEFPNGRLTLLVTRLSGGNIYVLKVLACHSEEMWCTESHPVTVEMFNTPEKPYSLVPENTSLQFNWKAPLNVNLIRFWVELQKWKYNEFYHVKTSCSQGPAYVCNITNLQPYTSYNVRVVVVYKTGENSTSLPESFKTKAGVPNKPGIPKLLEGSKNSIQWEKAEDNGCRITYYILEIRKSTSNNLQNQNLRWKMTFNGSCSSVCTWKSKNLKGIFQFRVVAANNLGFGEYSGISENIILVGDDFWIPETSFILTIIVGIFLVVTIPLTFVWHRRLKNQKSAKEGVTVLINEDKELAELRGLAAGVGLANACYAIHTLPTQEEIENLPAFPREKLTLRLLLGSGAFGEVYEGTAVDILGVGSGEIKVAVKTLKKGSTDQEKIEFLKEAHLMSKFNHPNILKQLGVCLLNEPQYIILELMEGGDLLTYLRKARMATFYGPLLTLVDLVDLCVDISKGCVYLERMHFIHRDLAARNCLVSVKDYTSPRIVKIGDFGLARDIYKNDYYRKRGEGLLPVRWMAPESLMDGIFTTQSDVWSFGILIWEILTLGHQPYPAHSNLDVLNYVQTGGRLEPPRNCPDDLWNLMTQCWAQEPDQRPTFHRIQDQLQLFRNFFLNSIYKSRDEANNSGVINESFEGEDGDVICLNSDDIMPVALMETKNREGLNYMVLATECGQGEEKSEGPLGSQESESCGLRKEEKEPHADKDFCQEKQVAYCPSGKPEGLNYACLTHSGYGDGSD
T3 sequence (P08069 31-1367): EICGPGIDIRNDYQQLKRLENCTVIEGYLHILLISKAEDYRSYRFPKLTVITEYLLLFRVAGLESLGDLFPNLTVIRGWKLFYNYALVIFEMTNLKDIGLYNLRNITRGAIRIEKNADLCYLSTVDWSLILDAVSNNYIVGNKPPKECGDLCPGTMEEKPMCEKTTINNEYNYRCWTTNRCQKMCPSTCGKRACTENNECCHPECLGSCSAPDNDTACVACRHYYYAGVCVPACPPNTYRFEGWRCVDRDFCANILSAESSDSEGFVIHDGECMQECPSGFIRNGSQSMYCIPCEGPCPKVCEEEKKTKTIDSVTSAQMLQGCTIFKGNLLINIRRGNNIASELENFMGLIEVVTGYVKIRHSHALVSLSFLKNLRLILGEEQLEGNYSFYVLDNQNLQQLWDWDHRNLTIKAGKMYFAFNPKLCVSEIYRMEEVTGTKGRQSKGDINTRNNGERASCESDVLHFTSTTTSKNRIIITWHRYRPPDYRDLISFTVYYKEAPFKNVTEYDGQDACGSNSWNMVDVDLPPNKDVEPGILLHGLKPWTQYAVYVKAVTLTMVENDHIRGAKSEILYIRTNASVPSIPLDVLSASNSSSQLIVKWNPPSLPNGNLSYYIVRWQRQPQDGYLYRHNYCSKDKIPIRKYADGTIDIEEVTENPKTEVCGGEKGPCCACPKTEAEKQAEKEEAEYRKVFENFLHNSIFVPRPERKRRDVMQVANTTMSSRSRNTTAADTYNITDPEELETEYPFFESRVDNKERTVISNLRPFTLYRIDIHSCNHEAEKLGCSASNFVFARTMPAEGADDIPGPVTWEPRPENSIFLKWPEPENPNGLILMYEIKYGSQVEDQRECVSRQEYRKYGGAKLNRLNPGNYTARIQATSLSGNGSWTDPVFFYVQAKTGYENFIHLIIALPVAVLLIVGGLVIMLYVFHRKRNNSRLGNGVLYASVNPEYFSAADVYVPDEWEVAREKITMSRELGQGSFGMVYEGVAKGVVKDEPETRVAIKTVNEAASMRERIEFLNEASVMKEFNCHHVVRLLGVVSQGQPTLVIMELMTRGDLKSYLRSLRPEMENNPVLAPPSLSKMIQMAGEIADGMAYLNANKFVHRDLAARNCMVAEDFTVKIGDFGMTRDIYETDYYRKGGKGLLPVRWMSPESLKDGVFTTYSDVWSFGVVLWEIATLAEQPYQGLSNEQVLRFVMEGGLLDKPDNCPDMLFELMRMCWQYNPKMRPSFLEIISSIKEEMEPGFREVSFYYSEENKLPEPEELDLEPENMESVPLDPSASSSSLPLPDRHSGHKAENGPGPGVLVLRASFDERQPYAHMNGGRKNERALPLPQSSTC
T1 sequence (P06213 28-1382): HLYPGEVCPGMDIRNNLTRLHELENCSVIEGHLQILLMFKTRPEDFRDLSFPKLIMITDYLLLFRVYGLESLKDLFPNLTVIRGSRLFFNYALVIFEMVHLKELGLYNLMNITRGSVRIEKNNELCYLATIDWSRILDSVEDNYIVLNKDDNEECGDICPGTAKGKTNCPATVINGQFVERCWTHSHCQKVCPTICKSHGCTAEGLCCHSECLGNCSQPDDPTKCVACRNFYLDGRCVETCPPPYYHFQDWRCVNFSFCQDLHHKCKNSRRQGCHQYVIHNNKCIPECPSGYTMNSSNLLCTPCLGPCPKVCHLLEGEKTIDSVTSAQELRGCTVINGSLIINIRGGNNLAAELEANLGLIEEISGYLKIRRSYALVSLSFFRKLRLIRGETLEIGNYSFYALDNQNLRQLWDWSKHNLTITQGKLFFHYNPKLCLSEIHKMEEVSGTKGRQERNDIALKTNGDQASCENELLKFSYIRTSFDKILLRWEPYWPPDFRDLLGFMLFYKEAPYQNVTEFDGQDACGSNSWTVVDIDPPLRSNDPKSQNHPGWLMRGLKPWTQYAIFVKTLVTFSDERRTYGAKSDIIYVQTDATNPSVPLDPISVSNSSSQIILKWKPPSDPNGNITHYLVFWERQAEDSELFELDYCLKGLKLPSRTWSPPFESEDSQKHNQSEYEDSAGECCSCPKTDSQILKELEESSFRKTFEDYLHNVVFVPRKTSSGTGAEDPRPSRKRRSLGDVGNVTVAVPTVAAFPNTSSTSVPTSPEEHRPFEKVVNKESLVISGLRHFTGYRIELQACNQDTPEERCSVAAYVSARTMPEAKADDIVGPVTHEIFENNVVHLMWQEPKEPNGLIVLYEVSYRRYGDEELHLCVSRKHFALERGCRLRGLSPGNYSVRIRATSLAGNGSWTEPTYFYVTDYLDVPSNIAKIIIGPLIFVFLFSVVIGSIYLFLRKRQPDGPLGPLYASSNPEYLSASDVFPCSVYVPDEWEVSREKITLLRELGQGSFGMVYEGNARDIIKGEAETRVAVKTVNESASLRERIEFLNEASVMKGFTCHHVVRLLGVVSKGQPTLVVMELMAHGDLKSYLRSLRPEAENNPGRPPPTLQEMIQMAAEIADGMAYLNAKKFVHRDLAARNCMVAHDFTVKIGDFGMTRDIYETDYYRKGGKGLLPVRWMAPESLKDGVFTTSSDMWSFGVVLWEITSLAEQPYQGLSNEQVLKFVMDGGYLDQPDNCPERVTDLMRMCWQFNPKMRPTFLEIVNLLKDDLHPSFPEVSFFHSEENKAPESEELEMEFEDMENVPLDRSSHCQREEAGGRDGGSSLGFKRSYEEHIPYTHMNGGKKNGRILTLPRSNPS

Compound	IC50 [1] [nM]	IC50 [2] [nM]	IC50 [3] [nM]	IC50 [4] [nM]	inhibition at 1 µM ([1]; compound 1 μM) [%]	IC50 [5] [nM]	inhibition at 1 µM ([3]; compound 1 μM) [%]
CC1(C(=O)N2CCC(F)(F)CC2)CCCN1c1nc2c(c(Nc3cc(C4CCCC4)[nH]n3)n1)CCC2 (racemic) [compound 146, (1-(4-((5-cyclopentyl-1H-pyrazol-3-yl)amino)-6,7-dihydro-5H-cyclopenta[d]pyrimidin-2-yl)-2-methylpyrrolidin-2-yl)(4,4-difluoropiperidin-1-yl)methanone]	> 30000	1570	> 30000	–	–	–	–
CC(C)c1cc(Nc2nc(N3CCC[C@H]3C(=O)N(C)c3nccs3)nc3c2CCC3)n[nH]1 [68b, (S)-1-(4-((5-isopropyl-1H-pyrazol-3-yl)amino)-6,7-dihydro-5H-cyclopenta[d]pyrimidin-2-yl)-N-methyl-N-(thiazol-2-yl)pyrrolidine-2-carboxamide]	364	83.8	243	4.41	77	41	84
CC(C)(C)c1cc(Nc2nc(N3CCC[C@@H]3C(=O)N3CCC(F)(F)CC3)nc3c2CCC3)n[nH]1 [142a, (R)-(1-(4-((5-(tert-butyl)-1H-pyrazol-3-yl)amino)-6,7-dihydro-5H-cyclopenta[d]pyrimidin-2-yl)pyrrolidin-2-yl)(4,4-difluoropiperidin-1-yl)methanone]	2940	> 1000	4850	> 1000	–	> 1000	–
CC(C)(C)c1cc(Nc2nc(N3CCC[C@H]3C(=O)N3CCC(F)(F)CC3)nc3c2CCC3)n[nH]1 [142b, (S)-(1-(4-((5-(tert-butyl)-1H-pyrazol-3-yl)amino)-6,7-dihydro-5H-cyclopenta[d]pyrimidin-2-yl)pyrrolidin-2-yl)(4,4-difluoropiperidin-1-yl)methanone]	11600	> 1000	> 10000	> 1000	–	> 1000	–
CCC(=O)N1CCN(C(=O)[C@H]2CCCN2c2nc3c(c(Nc4cc(C5CCCC5)[nH]n4)n2)CCC3)CC1 [143a, 1-(4-((4-((5-cyclopentyl-1H-pyrazol-3-yl)amino)-6,7-dihydro-5H-cyclopenta[d]pyrimidin-2-yl)-D-prolyl)piperazin-1-yl)propan-1-one]	650	14	740	52.2	–	398	–
CCC(=O)N1CCN(C(=O)[C@@H]2CCCN2c2nc3c(c(Nc4cc(C5CCCC5)[nH]n4)n2)CCC3)CC1 [143b, (S)-1-(4-((4-((5-cyclopentyl-1H-pyrazol-3-yl)amino)-6,7-dihydro-5H-cyclopenta[d]pyrimidin-2-yl)prolyl)piperazin-1-yl)propan-1-one]	17200	187	> 30000	> 1000	–	> 1000	–
CCN(C(=O)[C@@H]1CCCN1c1nc2c(c(Nc3cc(C(C)(C)C)[nH]n3)n1)CCC2)c1nccs1 [144b, (S)-1-(4-((5-(tert-butyl)-1 H-pyrazol-3-yl)amino)-6,7-dihydro-5H-cyclopenta[d]pyrimidin-2-yl)-N-ethyl-N-(thiazol-2-yl)pyrrolidine-2-carboxamide]	5960	> 1000	10300	> 1000	–	> 1000	–
CCN(C(=O)[C@@H]1CCCN1c1nc2c(c(Nc3cc(C(C)C)[nH]n3)n1)CCC2)c1nccs1 [145b, (S)—N-ethyl-1-(4-((5-isopropyl-1H-pyrazol-3-yl)amino)-6,7-dihydro-5H-cyclopenta[d]pyrimidin-2-yl)-N-(thiazol-2-yl)pyrrolidine-2-carboxamide]	670	262	470	–	–	–	–

Source: US20170137410A1, “FUSED CYCLOALKYL-PYRIMIDINE COMPOUNDS AND USES THEREOF” (Medivation Technologies, Inc., priority 2014, published 2017)
